Legend:
Assay type in all cases: cell-based, human
A431 cells = assay: In vitro cytotoxicity of taxanes, plating efficiency (clonogenic) assay, A431; conditions: read-out: IC50 value towards A431 cells
From the text: (§1) The sulfide, disulfide, and sulfhydryl containing taxane drugs of the invention can be evaluated for their ability to suppress proliferation of various human tumor cell lines in vitro. Four adherent cell lines, A431 (human epidermoid carcinoma), SKBR3 (human breast tumor), A549 (human lung carcinoma) and MCF-7 (human breast tumor), and the non-adherent cell line, Namalwa (Burkitt's lymphoma) are used for the assessment of cytotoxicity of these compounds. Cells are exposed to the compounds for 72 hours and the surviving fractions of cells are measured in direct assays.
A431, A549 and MCF-7 cells were plated at different densities in 6-well tissue-culture plates in DMEM medium supplemented with 10% fetal calf serum. Taxane 2′, at varying concentrations, was added and the cells were maintained in a humidified atmosphere at 37° C. and 6% CO2 until colonies of approximately 20 cells or more were formed (6 to 10 days). Control plates contained no taxane. The cells were then fixed with formaldehyde, stained with crystal violet, and counted under a low-magnification microscope. Plating efficiencies were then determined from the colony numbers and surviving fractions of cells were calculated as the ratio of the plating efficiency of the treated sample and the plating efficiency of the control.

MCF-7 cells = assay: In vitro cytotoxicity of taxanes, plating efficiency (clonogenic) assay, MCF-7; conditions: read-out: IC50 value towards MCF-7 cells
From the text: (§2) The new taxanes and the disulfide containing taxane drugs of the invention can be evaluated for their ability to suppress proliferation of human tumor cell lines in vitro.
as §1
(§3) The cytotoxic potency of taxane 3′ was similarly confirmed. […] The cells were then fixed with formaldehyde, stained with crystal violet, and counted under a low-magnification microscope. Plating efficiencies were then determined from the colony numbers and surviving fractions of cells were calculated as the ratio of the plating efficiency of the treated sample and the plating efficiency of the control.
(§4) The new taxoids and the disulfide containing taxane drugs of the invention were evaluated for their ability to suppress proliferation of human tumor cell lines in vitro. […]
(§5) 18 and 37 was measured as follows. […]

A549 cells = assay: In vitro cytotoxicity of taxanes, plating efficiency (clonogenic) assay, A549; conditions: read-out: IC50 value towards A549 cells
From the text: as §2, §1, §3, §4, §5

| Compound | IC50 (A431 cells) [nM] | IC50 (MCF-7 cells) [nM] | IC50 (A549 cells) [nM] |
| --- | --- | --- | --- |
| 3′-dephenyl-3′-(isobutenyl)-7-(methyldisulfonyl-propanoyl)-docetaxel [Taxane 2′] | 0.8 |  |  |
| COc1ccc(OC)c(C(=O)OC2C3C4(OC(C)=O)COC4CC(OC(=O)CCSSC)C3(C)C(=O)C(O)C3=C(C)C(OC(=O)C(O)C(C=C(C)C)NC(=O)OC(C)(C)C)CC2(O)C3(C)C)c1 (stereo not drawn) [Taxane 3′, 3′-dephenyl-3′-(isobutenyl)-2-debenzoyl-2-(2,5-dimethoxybenzoyl)-7-(methyldisulfonyl-propanoyl)-docetaxel] |  | 0.063 | 0.18 |

Reference: patent publication US7495114B2, “Cytotoxic agents containing novel potent taxanes and their therapeutic use” (Immunogen Inc., priority 2002, dated 2009)
